Reference: ChEMBL document CHEMBL1795220, “Antifungal quinazolinones from marine-derived Bacillus cereus and their preparation” (2011)
Converted amounts (≈) assume the structure as drawn.

Tested on: Candida albicans
Assay: Antifungal activity against Candida albicans after 12 hrs by agar dilution method
Assay type: functional

| MIC [µM] | SMILES |
| --- | --- |
| 5 | CCCC[C@H](CC)C1NC(=O)c2ccccc2N1 (mixture of isomers) |
| 15.6 (≈ 2.5 µg/mL) | Cc1nc2ccccc2c(=O)[nH]1 |
| 2.5 (≈ 0.611 µg/mL) | CCCC[C@@H](CC)c1nc2ccccc2c(=O)[nH]1 |
| 1.3 (≈ 0.318 µg/mL) | CCCC[C@H](CC)c1nc2ccccc2c(=O)[nH]1 |
| 10.1 (≈ 2.49 µg/mL) | CCCCC(CC)C1NC(=O)c2ccccc2N1 (racemic) |
| 10.6 (≈ 2.5 µg/mL) | Oc1nc(Cc2ccccc2)nc2ccccc12 |
| 2.5 | CCCC[C@@H](CC)C1NC(=O)c2ccccc2N1 (mixture of isomers) |
| 10.2 (≈ 2.49 µg/mL) | CCCCC(CC)c1nc2ccccc2c(=O)[nH]1 (racemic) |

| SMILES | MIC [µM] |
| --- | --- |
| CC(=O)N1CCN(c2ccc(OCC3COC(Cn4ccnc4)(c4ccc(Cl)cc4Cl)O3)cc2)CC1 (centres undefined) [KETOCONAZOLE] | 0.2 (≈ 0.106 µg/mL) |
